Laboratory results published in paper PMC7806715, “Discovery of small molecules targeting the tandem tudor domain of the epigenetic factor UHRF1 using fragment-based ligand discovery” (Scientific Reports, 2021).

Target: T1, C-FLAG-UHRF1-FL (Homo sapiens, UniProt Q96T88)
T1 construct: His6-UHRF1-full length (His6-UHRF1-FL); His (N); made in house; host or cells: Rosetta (DE3) E. coli, pMCSG7
T1 sequence (Q96T88 1-793): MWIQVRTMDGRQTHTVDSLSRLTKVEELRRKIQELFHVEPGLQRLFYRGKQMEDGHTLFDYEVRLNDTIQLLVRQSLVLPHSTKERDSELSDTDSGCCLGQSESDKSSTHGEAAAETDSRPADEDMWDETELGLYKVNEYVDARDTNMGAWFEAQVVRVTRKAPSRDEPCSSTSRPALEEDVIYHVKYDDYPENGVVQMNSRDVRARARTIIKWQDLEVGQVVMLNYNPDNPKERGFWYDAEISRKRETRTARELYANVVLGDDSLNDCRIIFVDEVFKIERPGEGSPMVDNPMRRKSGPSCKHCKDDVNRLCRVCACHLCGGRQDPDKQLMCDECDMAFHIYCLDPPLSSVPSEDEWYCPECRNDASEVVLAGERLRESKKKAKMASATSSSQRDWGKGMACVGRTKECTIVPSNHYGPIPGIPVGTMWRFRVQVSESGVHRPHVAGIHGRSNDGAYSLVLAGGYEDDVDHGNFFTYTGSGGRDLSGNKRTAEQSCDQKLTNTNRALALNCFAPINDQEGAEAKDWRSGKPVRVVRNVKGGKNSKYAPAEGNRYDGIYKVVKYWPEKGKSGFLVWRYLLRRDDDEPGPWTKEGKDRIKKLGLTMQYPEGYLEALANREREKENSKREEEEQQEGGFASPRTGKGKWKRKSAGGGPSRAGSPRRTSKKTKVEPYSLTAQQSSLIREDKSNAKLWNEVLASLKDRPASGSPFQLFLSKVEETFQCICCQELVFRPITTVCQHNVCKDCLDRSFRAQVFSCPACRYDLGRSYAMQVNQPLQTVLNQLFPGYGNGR
Assay: Intrinsic tryptophan fluorescence of C-FLAG-UHRF1-FL
Type: binding
Details: 5 µM protein
Method: The untagged TTD was diluted to 30 µM by buffer (50 mM sodium phosphate, pH 7.5, 150 mM NaCl) with or without 60 µM of H3K9me3 peptide (1–20) (Anaspec). 10 µL of diluted TTD was added into 384-well flat bottom black plate (Greiner, Cat# 781086). […] The final concentration of TTD was 15 µM and the H3K9me3 peptide (if included) was 30 µM. The experiment was performed at room temperature. […] After compound addition, the intrinsic tryptophan fluorescence was analyzed by the Tecan Infinite M1000 plate reader (excitation 280 nm, emission 334 nm). […] Tryptophan fluorescence monitors 2 , 4 - lutidine binding to His 6 - TTD, His 6 - TTD - PHD, and C - FLAG - UHRF 1 - FL . 2 , 4 - Lutidine dose - dependently quenched the tryptophan fluorescence of TTD (purple circle), while only started to show quenching effect against His 6 - TTD - PHD at mM concentration (blue diamond) . 2 , 4 - Lutidine had no effect on the fluorescence of C - FLAG - UHRF 1 - FL and the control USP 7 - UBL 1 / 2 protein . n= 3 for each data point . (Note : the standard deviation error bars are included, but the error values are often extremely small in this assay) . […]

SMILES: Cc1ccnc(C)c1 [2,4-lutidine]
- quenching of C-FLAG-UHRF1 tryptophan fluorescence (in words): did not quench
